Results reported in patent publication US6881756B2, “Method for treating skin disorders” (Johnson & Johnson Consumer Companies, Inc., priority 2001, dated 2005).

Key:
Albino male CD-1 mice [1] = test: Neurosensory (neurogenic) inflammation model: resiniferatoxin-induced ear edema; type: in vivo, mouse; settings: for activity in the neurosensory inflammation model (in words): resiniferatoxin ear edema model, overall; for % Inhibition of the Ear Edema: 20 μl to left ear, biopsy weight at 30 minutes
Text: Neurosensory inflammation, also referred to as neurogenic inflammation, is a type of inflammation triggered by sensory nerve activation in skin. Certain natural substances that act on vanilloid receptors cause the nerves (C-fibers) to release inflammatory neuropeptides such as substance P and calcitonin gene-related peptide. In mouse skin, an edema response rapidly occurs upon application of either the vanilloid receptor activators, capsaicin or resiniferatoxin. Compounds that inhibit the response to neurosensory stimulation could be useful as topical analgesics, itch inhibitors or soothing agents for irritated or damaged skin. See U.S. Pat. No. 6,090,811.
Albino male CD-1 mice, 7-9 weeks old, were used. Resiniferatoxin alone (0.05%) or a combination of 0.05% resiniferatoxin with test compound was made in acetone. A 20-μl volume of the solutions was applied to the left ears (10 mice per treatment group). The right ear was not treated. The mice were sacrificed by CO2 inhalation 30 minutes after applying the solutions. The left and right ears were removed and a 7-mm biopsy was removed from each ear and weighed. The difference in biopsy weights between the right and left ear was calculated. The percent inhibition was calculated by comparing treatments to resiniferatoxin alone. Anti-edema effects of compounds are evident as an inhibition of the increase in ear weight.

Albino male CD-1 mice [2] = test: Allergic contact dermatitis model: oxazolone-induced ear swelling; type: in vivo, mouse; settings: for % Inhibition of the Ear Swelling Response: 20 μL to left ear 1 hour after oxazolone challenge, ear biopsy weight at 24 hours
Experimental: Allergic contact dermatitis is an animal model of skin inflammation that mimics many aspects of human skin inflammation. See Young J M, De Young L M, Cutaneous Models of Inflammation for the Evaluation of Topical and Systemic Pharmacological Agents; In: Pharmacological Methods in the Control of Inflammation, Alan R. Liss, Inc, pp. 215-231 (1989). […] The inflammatory response is established by using oxazolone as the chemical sensitizer. A topical anti-inflammatory agent is assessed by measuring its ability to suppress the ear swelling reaction after applying a challenge dose of oxazolone to the ear followed by the test agent.
In this assay, the totarol (Mende-DEK Limited, Masterton, New Zealand) was evaluated against hydrocortisone, a steroid known to inhibit allergic contact dermatitis. Albino male CD-1 mice, 7-9 weeks old, were induced on the shaved abdomen with 50 μL of 3% oxazolone in acetone/corn oil (Day 0). On Day 5, a 20 μL volume of 2% oxazolone in acetone was applied to the dorsal left ear of the mouse. Test agents were applied to the left ear (20 μL) 1 hour after oxazolone challenge in a 70% ethanol/30% propylene glycol vehicle. The right ear was not treated. The mice were sacrificed by CO2 inhalation 24 hours after the oxazolone challenge, the left and right ears were removed and a 7-mm biopsy was taken from each ear and weighed. Anti-inflammatory effects of compounds are evident as an inhibition of the increase in ear weight.

In the case of `CCCCC/C=C\C/C=C\C/C=C\C/C=C\CCCC(=O)NCc1ccc(O)c(OC)c1` [Arvanil, reference compound], the “activity in the neurosensory inflammation model (in words)” value (Albino male CD-1 mice [1]) is reported as “also active” and the “% Inhibition of the Ear Edema” value (Albino male CD-1 mice [1]; topical dose 0.5% w/v with 0.05% resiniferatoxin in acetone) is reported as 26.8%.

`C[C@]12CCC(=O)C=C1CC[C@@H]1[C@@H]2[C@@H](O)C[C@@]2(C)[C@H]1CC[C@]2(O)C(=O)CO` [Hydrocortisone, reference compound] was tested, and the “% Inhibition of the Ear Swelling Response” value (Albino male CD-1 mice [2]; topical dose 0.001% w/v) was 36.0%, the “% Inhibition of the Ear Swelling Response” value (Albino male CD-1 mice [2]; topical dose 0.01% w/v) was 65.5% and the “% Inhibition of the Ear Swelling Response” value (Albino male CD-1 mice [2]; topical dose 0.1% w/v) was 84.2%.

For `CC(C)c1c(O)ccc2c1CC[C@H]1C(C)(C)CCC[C@]21C` [Totarol], the “activity in the neurosensory inflammation model (in words)” value (Albino male CD-1 mice [1]) was “highly effective”, the “% Inhibition of the Ear Edema” value (Albino male CD-1 mice [1]; topical dose 1% w/v with 0.05% resiniferatoxin in acetone) was 46.6% and the “topical anti-inflammatory activity (in words)” value (Albino male CD-1 mice [2]; oxazolone allergic contact dermatitis model, overall) was “highly effective as a topical anti-inflammatory agent with dose-dependent inhibition of the inflammatory response”. The “% Inhibition of the Ear Swelling Response” value (Albino male CD-1 mice [2]; topical dose 0.03% w/v) was 44.6%, the “% Inhibition of the Ear Swelling Response” value (Albino male CD-1 mice [2]; topical dose 0.3% w/v) was 80.0% and the “% Inhibition of the Ear Swelling Response” value (Albino male CD-1 mice [2]; topical dose 1% w/v) was 82.3%. The “activity compared with hydrocortisone (in words)” value (Albino male CD-1 mice [2]; totarol at its two highest doses vs highest dose of hydrocortisone) was “equivalent in activity to the highest dose of hydrocortisone”.
